Source: ChEMBL document CHEMBL1275576, “In vitro activity of tomopenem (CS-023/RO4908463) against anaerobic bacteria” (Antimicrob Agents Chemother, 2009)

What was measured:
[1] = system: Lactobacillus brevis; experiment: Antimicrobial activity against Lactobacillus brevis subsp. brevis JCM 1059 by agar dilution method in presence of 5% laked sheep blood; assay type: functional; conditions: Levilactobacillus brevis
[2] = system: Bacteroides uniformis; experiment: Antimicrobial activity against Bacteroides uniformis by agar dilution method in presence of 5% laked sheep blood; assay type: functional
[3] = Antimicrobial activity against Desulfovibrio piger DSM 749 by agar dilution method in presence of 5% laked sheep blood; assay type: functional, Desulfovibrio piger ATCC 29098
[4] = system: Porphyromonas gingivalis; experiment: Antimicrobial activity against Porphyromonas gingivalis ATCC 33277 by agar dilution method in presence of 5% laked sheep blood; assay type: functional
[5] = system: Bacteroides ovatus; experiment: Antimicrobial activity against Bacteroides ovatus ATCC 8483 by agar dilution method in presence of 5% laked sheep blood; assay type: functional
[6] = system: Odoribacter splanchnicus; experiment: Antimicrobial activity against Odoribacter splanchnicus by agar dilution method in presence of 5% laked sheep blood; assay type: functional
[7] = system: Fusobacterium nucleatum; experiment: Antimicrobial activity against Fusobacterium nucleatum by agar dilution method in presence of 5% laked sheep blood; assay type: functional
[8] = system: Schaalia odontolytica; experiment: Antimicrobial activity against Actinomyces odontolyticus GAI 91002 by agar dilution method in presence of 5% laked sheep blood; assay type: functional
[9] = system: Lactobacillus acidophilus; experiment: Antimicrobial activity against Lactobacillus acidophilus JCM 1132 by agar dilution method in presence of 5% laked sheep blood; assay type: functional
[10] = system: Bacteroides fragilis; experiment: Antimicrobial activity against Bacteroides fragilis ATCC 25285 by agar dilution method in presence of 5% laked sheep blood; assay type: functional; conditions: NCTC 9343
[11] = system: Enterocloster clostridioformis; experiment: Antimicrobial activity against Clostridium clostridioforme NCTC 11224 by agar dilution method in presence of 5% laked sheep blood; assay type: functional
[12] = system: Porphyromonas gingivalis; experiment: Antimicrobial activity against Porphyromonas gingivalis by agar dilution method in presence of 5% laked sheep blood; assay type: functional
[13] = system: Phocaeicola vulgatus; experiment: Antimicrobial activity against Bacteroides vulgatus by agar dilution method in presence of 5% laked sheep blood; assay type: functional
[14] = system: Parabacteroides distasonis; experiment: Antimicrobial activity against Parabacteroides distasonis by agar dilution method in presence of 5% laked sheep blood; assay type: functional
[15] = system: Clostridium perfringens; experiment: Antimicrobial activity against Clostridium perfringens ATCC 13124 by agar dilution method in presence of 5% laked sheep blood; assay type: functional
[16] = system: Peptostreptococcus anaerobius; experiment: Antimicrobial activity against Peptostreptococcus anaerobius by agar dilution method in presence of 5% laked sheep blood; assay type: functional
[17] = system: Fusobacterium necrophorum; experiment: Antimicrobial activity against Fusobacterium necrophorum by agar dilution method in presence of 5% laked sheep blood; assay type: functional
[18] = system: Fusobacterium varium; experiment: Antimicrobial activity against Fusobacterium varium by agar dilution method in presence of 5% laked sheep blood; assay type: functional
[19] = system: Finegoldia magna; experiment: Antimicrobial activity against Finegoldia magna by agar dilution method in presence of 5% laked sheep blood; assay type: functional
[20] = Antimicrobial activity against Parabacteroides distasonis ATCC 8503 by agar dilution method in presence of 5% laked sheep blood; assay type: functional
[21] = system: Gemella morbillorum; experiment: Antimicrobial activity against Gemella morbillorum ATCC 27824 by agar dilution method in presence of 5% laked sheep blood; assay type: functional
[22] = system: Fusobacterium sp.; experiment: Antimicrobial activity against Fusobacterium sp. by agar dilution method in presence of 5% laked sheep blood; assay type: functional
[23] = system: Bacteroides thetaiotaomicron; experiment: Antimicrobial activity against Bacteroides thetaiotaomicron by agar dilution method in presence of 5% laked sheep blood; assay type: functional
[24] = system: Peptoniphilus asaccharolyticus; experiment: Antimicrobial activity against Peptoniphilus asaccharolyticus WAL 3218 by agar dilution method in presence of 5% laked sheep blood; assay type: functional
[25] = system: Fusobacterium nucleatum; experiment: Antimicrobial activity against Fusobacterium nucleatum ATCC 25586 by agar dilution method in presence of 5% laked sheep blood; assay type: functional
[26] = system: Bacteroides caccae; experiment: Antimicrobial activity against Bacteroides caccae by agar dilution method in presence of 5% laked sheep blood; assay type: functional
[27] = system: Porphyromonas asaccharolytica; experiment: Antimicrobial activity against Porphyromonas asaccharolyticus by agar dilution method in presence of 5% laked sheep blood; assay type: functional
[28] = system: Bacteroides fragilis; experiment: Antimicrobial activity against Bacteroides fragilis GAI 7955 by agar dilution method in presence of 5% laked sheep blood; assay type: functional
[29] = system: Streptococcus intermedius; experiment: Antimicrobial activity against Streptococcus intermedius ATCC 27335 by agar dilution method in presence of 5% laked sheep blood; assay type: functional
[30] = system: Lactiplantibacillus plantarum; experiment: Antimicrobial activity against Lactobacillus plantarum JCM 1149 by agar dilution method in presence of 5% laked sheep blood; assay type: functional
[31] = system: Desulfovibrio desulfuricans; experiment: Antimicrobial activity against Desulfovibrio desulfuricans by agar dilution method in presence of 5% laked sheep blood; assay type: functional
[32] = system: Peptoniphilus asaccharolyticus; experiment: Antimicrobial activity against Peptoniphilus asaccharolyticus by agar dilution method in presence of 5% laked sheep blood; assay type: functional
[33] = system: Bacteroides heparinolyticus; experiment: Antimicrobial activity against Prevotella heparinolytica ATCC 35895 by agar dilution method in presence of 5% laked sheep blood; assay type: functional
[34] = system: Eubacterium limosum; experiment: Antimicrobial activity against Eubacterium limosum by agar dilution method in presence of 5% laked sheep blood; assay type: functional
[35] = system: Hoylesella oralis; experiment: Antimicrobial activity against Prevotella oralis ATCC 33269 by agar dilution method in presence of 5% laked sheep blood; assay type: functional
[36] = system: Campylobacter ureolyticus; experiment: Antimicrobial activity against Bacteroides ureolyticus NCTC 10941 by agar dilution method in presence of 5% laked sheep blood; assay type: functional
[37] = system: Thomasclavelia ramosa; experiment: Antimicrobial activity against Clostridium ramosum ATCC 25582 by agar dilution method in presence of 5% laked sheep blood; assay type: functional
[38] = system: Fusobacterium varium; experiment: Antimicrobial activity against Fusobacterium varium ATCC 8501 by agar dilution method in presence of 5% laked sheep blood; assay type: functional
[39] = system: Bacteroides stercoris; experiment: Antimicrobial activity against Bacteroides stercoris by agar dilution method in presence of 5% laked sheep blood; assay type: functional
[40] = system: Peptostreptococcus anaerobius; experiment: Antimicrobial activity against Peptostreptococcus anaerobius ATCC 27337 by agar dilution method in presence of 5% laked sheep blood; assay type: functional
[41] = Antimicrobial activity against Veillonella dispar ATCC 17748 by agar dilution method in presence of 5% laked sheep blood; assay type: functional
[42] = system: Prevotella melaninogenica; experiment: Antimicrobial activity against Prevotella melaninogenica JCM 6325 by agar dilution method in presence of 5% laked sheep blood; assay type: functional; conditions: ATCC 25845
[43] = system: Parvimonas micra; experiment: Antimicrobial activity against Parvimonas micra by agar dilution method in presence of 5% laked sheep blood; assay type: functional
[44] = system: Prevotella sp.; experiment: Antimicrobial activity against Prevotella sp. by agar dilution method in presence of 5% laked sheep blood; assay type: functional
[45] = system: Prevotella melaninogenica; experiment: Antimicrobial activity against Prevotella melaninogenica by agar dilution method in presence of 5% laked sheep blood; assay type: functional

Q: Which MIC [1] does the source give for `C[C@@H](O)[C@H]1C(=O)N2C(C(=O)O)=C(S[C@H]3C[C@@H](C(=O)N4CC[C@H](NC(=O)CNC(=N)N)C4)N(C)C3)[C@H](C)[C@H]12` [TOMOPENEM] here?
A: 0.25 µg/mL

Q: And the MIC50 [2]?
A: 0.5 µg/mL

Q: What about the MIC90 [2] of the same molecule?
A: 4 µg/mL

Q: And the MIC [3]?
A: 0.03 µg/mL

Q: And the MIC [4]?
A: 0.03 µg/mL

Q: What about the MIC [5] of the same molecule?
A: 0.5 µg/mL

Q: What about the MIC50 [6] of the same molecule?
A: 0.5 µg/mL

Q: What about the MIC90 [6] of the same molecule?
A: 4 µg/mL

Q: What about the MIC50 [7] of the same molecule?
A: ≤ 0.015 µg/mL

Q: What about the MIC90 [7] of the same molecule?
A: 0.5 µg/mL

Q: What about the MIC [8] of the same molecule?
A: 0.5 µg/mL

Q: What about the MIC [9] of the same molecule?
A: 0.25 µg/mL

Q: And the MIC [10]?
A: 0.25 µg/mL

Q: What about the MIC [11] of the same molecule?
A: 0.03 µg/mL

Q: And the MIC50 [12]?
A: 0.03 µg/mL

Q: And the MIC90 [12]?
A: 0.06 µg/mL

Q: What about the MIC50 [13] of the same molecule?
A: 0.5 µg/mL

Q: What about the MIC90 [13] of the same molecule?
A: 4 µg/mL

Q: What about the MIC50 [14] of the same molecule?
A: 0.5 µg/mL

Q: What about the MIC90 [14] of the same molecule?
A: 4 µg/mL

Q: And the MIC [15]?
A: 0.03 µg/mL

Q: What about the MIC50 [16] of the same molecule?
A: 0.5 µg/mL

Q: What about the MIC90 [16] of the same molecule?
A: 4 µg/mL

Q: And the MIC50 [17]?
A: ≤ 0.015 µg/mL

Q: What about the MIC90 [17] of the same molecule?
A: 0.5 µg/mL

Q: And the MIC50 [18]?
A: ≤ 0.015 µg/mL

Q: What about the MIC90 [18] of the same molecule?
A: 0.5 µg/mL

Q: What about the MIC50 [19] of the same molecule?
A: 0.06 µg/mL

Q: And the MIC90 [19]?
A: 0.125 µg/mL

Q: And the MIC [20]?
A: 0.25 µg/mL

Q: And the MIC [21]?
A: 0.03 µg/mL

Q: And the MIC50 [22]?
A: ≤ 0.015 µg/mL

Q: And the MIC90 [22]?
A: 0.5 µg/mL

Q: And the MIC50 [23]?
A: 0.5 µg/mL

Q: What about the MIC90 [23] of the same molecule?
A: 2 µg/mL

Q: What about the MIC [24] of the same molecule?
A: 0.03 µg/mL

Q: And the MIC [25]?
A: 2 µg/mL

Q: What about the MIC50 [26] of the same molecule?
A: 0.5 µg/mL

Q: What about the MIC90 [26] of the same molecule?
A: 4 µg/mL

Q: What about the MIC50 [27] of the same molecule?
A: 0.03 µg/mL

Q: What about the MIC90 [27] of the same molecule?
A: 0.06 µg/mL

Q: What about the MIC [28] of the same molecule?
A: 4 µg/mL

Q: What about the MIC [29] of the same molecule?
A: 0.125 µg/mL

Q: And the MIC [30]?
A: 0.06 µg/mL

Q: And the MIC50 [31]?
A: 0.125 µg/mL

Q: What about the MIC90 [31] of the same molecule?
A: 0.5 µg/mL

Q: And the MIC50 [32]?
A: ≤ 0.015 µg/mL

Q: And the MIC90 [32]?
A: 0.06 µg/mL

Q: And the MIC [33]?
A: 0.125 µg/mL

Q: And the MIC50 [34]?
A: 0.5 µg/mL

Q: What about the MIC90 [34] of the same molecule?
A: 0.5 µg/mL

Q: What about the MIC [35] of the same molecule?
A: 0.06 µg/mL

Q: What about the MIC [36] of the same molecule?
A: 0.03 µg/mL

Q: And the MIC [37]?
A: 0.5 µg/mL

Q: And the MIC [38]?
A: 0.5 µg/mL

Q: What about the MIC50 [39] of the same molecule?
A: 0.5 µg/mL

Q: And the MIC90 [39]?
A: 4 µg/mL

Q: What about the MIC [40] of the same molecule?
A: 0.5 µg/mL

Q: What about the MIC [41] of the same molecule?
A: 0.03 µg/mL

Q: And the MIC [42]?
A: 0.125 µg/mL

Q: What about the MIC50 [43] of the same molecule?
A: 0.125 µg/mL

Q: And the MIC90 [43]?
A: 0.125 µg/mL

Q: What about the MIC50 [44] of the same molecule?
A: 0.125 µg/mL

Q: What about the MIC90 [44] of the same molecule?
A: 0.5 µg/mL

Q: And the MIC50 [45]?
A: 0.125 µg/mL

Q: What about the MIC90 [45] of the same molecule?
A: 0.5 µg/mL
